What was measured:
adrenergic beta-receptor = target: T1, adrenergic beta-receptor (Cavia porcellus, UniProt Q8K4Z4); assay: Beta-adrenergic blocking activity in the isolated guinea pig trachea (isoproterenol); format: cell-based; conditions: potency relative to propanol (equals one); isoproterenol 0.1 mcg./ml.
T1 construct: Tracheas excised from adult guinea pigs; from tissue; host or cells: guinea pig trachea (spirally cut segments)
Method: Test Method. […] The lower end of a tracheal segment is fixed to a stationary glass rod and the upper end is threaded to an isometric tension transducer. Changes in the spontaneous tonus of the tracheal smooth muscle are monitored via the transducer and recorded continuously on an electronic recorder. Adrenergic beta-receptor blocking activity is determined by the ability of a test agent to inhibit the response of the isolated tissue to the adrenergic beta-stimulant "isoproterenol" at a concentration of 0.1 mcg./ml. bath fluid. The tissues are exposed to the test agent solution for a 15-min. interval prior to the addition of isoproterenol to the bath fluid. Beta-receptor blocking potency of a test drug is ascertained from concentration-response relationships wherein the response is expressed as a percent inhibition of isoproterenol-induced tissue response. […] Each drug solution is added to the tissue bathing medium at a constant volume of 0.2 ml./ml. of bath fluid and only one test drug concentration is employed for an individual tissue segment. Potency of the test agent relative to that of the beta-adrenergic blocking agent "propanolol" as a reference standard is assessed by comparing the IC50 values.

rabbit eye = assay: Local anesthetic activity, topical application to the rabbit eye; format: in vivo
mesenteric arteries [1] = assay: Basal tone of mesenteric arteries of rabbits; parameters: species or system rabbit
Excerpt: (§1) (b) The compound of Example 2 elevated basal tone of mesenteric arteries of dogs and rabbits. This effect is considered valuable in the treatment of peripheral and cerebral vascular diseases.

[2] = tested on: human platelet-rich plasma; assay: Inhibition of platelet aggregation in vitro (ADP or collagen induced; antithrombogenic activity); format: cell-based
Method: Test Method. A method similar to that described in Born, Nature 194, 927 (1962) and O'Brien, J. Clinical Pathology 15, 446 (1962). This test comprises a nephelometric method in which the change in turbidity of a specimen of human platelet-rich plasma is measured on causation of platelet aggregation by addition of adenosine diphosphate (ADP) or collagen as the thrombogenic inducing agent. An increase in transmittance light occurs when the thrombogenic agent is added to the specimen of platelet-rich plasm due to clumping of platelets. Efficacy of the test compound is determined by ability to prevent the clumping and concommitant increase in transmittance. Various concentrations of the test agent are tested and that concentration causing a 50% reduction in the thrombogenic response is determined from a concentration-response curve.

guinea pig skin = assay: Local anesthetic activity, intradermal infiltration of guinea pig skin; format: in vivo
platelet survival = assay: Platelet survival time in rats with intra-arterial catheters; format: in vivo, rat
Excerpt: (a) Rats with intra-arterial catheters have periods of shortened platelet survival time. This shortened survival time is normalized with the compound of Example 2.

perfused dog hind limb = assay: Peripheral vasodilator activity, perfused dog hind limb (anesthetized dog); format: in vivo
Method: Test Method. Mongrol dogs of either sex weighing between 11 and 16 kg., each, were anesthetized with pentobarbital (30 mg./kg.) administered intravenously. The left brachial vein was cannulated and pentobarbital infused continuously throughout the experiment at a rate of 5 mg./kg./hr. A tracheotomy was performed and dogs ventilated mechanically with room air at a rate of 18 strokes/min. and a volume equivalent to 20 ml./kg. The vagi were sectioned bilaterally in the mid-cervical region of the neck. The right brachial vein and artery were cannulated to inject drugs and to monitor blood pressure via a Statham pressure transducer, respectively. All measurements were recorded on a Beckman-Offner dynograph. The abdominal aorta was exposed through midline incision and a loose ligature placed around the aorta distal to the left renal artery. The right (donor) and left (recipient) femoral arteries were exposed for cannulation and subsequent hind-limb perfursion. Following intravenous administration of heparin (5 mg/kg.) and gallamine triethiodide (2 mg./kg.), the right femoral artery was cannulated and the tip of the catheter advanced into the abdominal aorta to the level of the renal arteries. The left femoral artery was cannulated and the hind-limb perfused using a Harvard Perfusion pump. The ligature previously placed around the aorta was subsequently tied to minimize collateral circulation. […] Perfusion pressure, measured at a point distal to the perfusion pump was set equal to 150 mm Hg. by adjusting pump speed. Blood flow to the limb was determined volumetrically at the conclusion of the experiment. The test agent was administered by infusion at a rate of from 0.1-1.0 mg./min. for a six-minute period and maximum reduction in pressure determined. One to three animals were employed per test agent. […] This protocol precludes effects resulting from animal variation thus permitting a direct side-by-side comparison of vasodilating activity.

red blood cell = assay: Red blood cell rigidity via chromium^51 labeling technique; format: cell-based
rabbit thoracic aorta = assay: Isolated rabbit thoracic aorta, antispasmodic activity vs. potassium chloride; format: cell-based, rabbit (New Zealand White); conditions: potency relative to papaverine (equals one), from pA2 vs. potassium chloride
Method: Test Method. Antispasmodic activity was assessed in vitro by determining the effect of the test substance on induced contraction of arterial smooth muscle as follows. Adult, male, New Zealand White rabbits (body weight 2.5-4 kg.) were used. Each rabbit was killed by i.v. air injection. The thorax was opened and the descending thoracic aorta removed and placed in Kreb's-bicarbonate solution. Extraneous tissue was removed and the aorta was cut spirally along its entire length. Four spiral segments, each approximately 2 cm. in length (unstretched), were obtained from each thoracic aorta. […] The bath medium surrounding the aortic spiral (Kreb's-bicarbonate solution) was maintained at 37.5°C. and constantly aerated with 95% O2 :5% CO2. Activity of the aortic smooth muscle was recorded on an electronic polygraph via its connection to the tension transducer. After an equilibration period of 60 min., a cumulative dose-response curve was obtained to an agonist (e.g. potassium chloride or norepinephrine) and the tissue then washed. Seventy-five min. later, a second cumulative dose-response curve to the agonist was obtained and the tissue washed again. Sixty min. later, a test drug solution was added to the tissue bath fluid and, after 15 min., drug exposure and, without washing, a third and final agonist-response curve was obtained. All additions to the bath fluid were 0.1 ml. volumes of aqueous solutions.

mesenteric arteries [3] = assay: Basal tone of mesenteric arteries of dogs; parameters: species or system dog
Excerpt: as §1

[4] = 0.3 mg./min., side-by-side comparison

T1 sequence (Q8K4Z4 whole entry): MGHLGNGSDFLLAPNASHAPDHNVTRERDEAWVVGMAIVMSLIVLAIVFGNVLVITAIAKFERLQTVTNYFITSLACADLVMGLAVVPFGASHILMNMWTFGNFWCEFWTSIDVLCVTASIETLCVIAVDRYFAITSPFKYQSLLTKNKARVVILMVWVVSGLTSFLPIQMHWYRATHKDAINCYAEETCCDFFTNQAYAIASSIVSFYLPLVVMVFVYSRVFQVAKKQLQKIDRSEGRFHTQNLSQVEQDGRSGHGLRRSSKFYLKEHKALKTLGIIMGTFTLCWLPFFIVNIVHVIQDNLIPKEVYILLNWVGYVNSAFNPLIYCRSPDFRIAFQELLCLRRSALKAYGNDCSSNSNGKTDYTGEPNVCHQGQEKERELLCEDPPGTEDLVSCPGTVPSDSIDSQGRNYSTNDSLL

Structure (SMILES): CCCCCCCCNCC(O)COc1ccc(SC(C)C)cc1.Cl (stereo not drawn) [Example 2, 1-[4-[(1-Methylethyl)thio]phenoxy]-3-(octylamino)-2-propanol Hydrochloride]
- Beta-Adrenergic Blocking Potency (adrenergic beta-receptor): < 0.001
- local anesthetic activity vs. lidocaine (rabbit eye): greater than
- basal tone of mesenteric arteries (mesenteric arteries [1]): elevated
- ED50 ADP (inhibition of platelet aggregation) ([2]; aggregation induced by 1 mcg. ADP): 56 Microgram/0.5 ml. plateletrich human plasma
- ED50 Coll (inhibition of platelet aggregation) ([2]; minimal amount of collagen producing maximal aggregation): 31 Microgram/0.5 ml. plateletrich human plasma
- local anesthetic activity vs. lidocaine (guinea pig skin): as great as
- shortened platelet survival time (platelet survival): normalized
- vasodilator effect relative to test agent A (perfused dog hind limb; [4]): approximately 3.2 times
- vasodilator effect relative to test agent B (perfused dog hind limb; [4]): ~21 times
- Pressure Decrease (perfused dog hind limb; infusion rate 0.3 mg./min.): -44 Millimeters of mercury
- Pressure Decrease (perfused dog hind limb; infusion rate 0.3 mg./min., side-by-side comparison in same animals): -63 Millimeters of mercury
- Pressure Decrease (perfused dog hind limb; infusion rate 1.0 mg./min.): -99 Millimeters of mercury
- red blood cell rigidity (red blood cell): decreased
- Antispasmodic Potency (rabbit thoracic aorta): 0.6
- basal tone of mesenteric arteries (mesenteric arteries [3]): elevated

Reference: patent US4243681A, “Alkylthiophenoxypropanolamines and pharmaceutical compositions and uses thereof” (priority 1979, dated 1981)
